Results as given in patent US8163775B2, “Allosteric modulators of metabotropic glutamate receptors” (Addex Pharma SA, priority 2003, dated 2012).

Assays:
mGluR5 [1] = molecular target: mGluR5 (Homo sapiens, UniProt P41594); conditions: cited from earlier work
[2] = molecular target: orthosteric glutamate site of mGluR5 (Homo sapiens, UniProt P41594); conditions: cited from earlier work
mGluR5 [3] = molecular target: T1, mGluR5 (Rattus norvegicus, UniProt P31424); test: mGluR5 assay on rat cultured cortical astrocytes (Ca2+ mobilization, FLIPR); format: cell-based; conditions: for increase of 1 μM glutamate-induced Ca2+ mobilization: 3 μM compound, 1 μM glutamate (EC20), rat cultured astrocytes, FIG. 1; for agonistic activity in the absence of glutamate: no glutamate, compared to buffer value
T1 construct: a functional expression of mGluR5 receptors; endogenous in cells; host or cells: primary cortical astrocytes from Sprague-Dawley rat embryos (15 days), treated with bFGF and EGF
T1 sequence (P31424 21-1203): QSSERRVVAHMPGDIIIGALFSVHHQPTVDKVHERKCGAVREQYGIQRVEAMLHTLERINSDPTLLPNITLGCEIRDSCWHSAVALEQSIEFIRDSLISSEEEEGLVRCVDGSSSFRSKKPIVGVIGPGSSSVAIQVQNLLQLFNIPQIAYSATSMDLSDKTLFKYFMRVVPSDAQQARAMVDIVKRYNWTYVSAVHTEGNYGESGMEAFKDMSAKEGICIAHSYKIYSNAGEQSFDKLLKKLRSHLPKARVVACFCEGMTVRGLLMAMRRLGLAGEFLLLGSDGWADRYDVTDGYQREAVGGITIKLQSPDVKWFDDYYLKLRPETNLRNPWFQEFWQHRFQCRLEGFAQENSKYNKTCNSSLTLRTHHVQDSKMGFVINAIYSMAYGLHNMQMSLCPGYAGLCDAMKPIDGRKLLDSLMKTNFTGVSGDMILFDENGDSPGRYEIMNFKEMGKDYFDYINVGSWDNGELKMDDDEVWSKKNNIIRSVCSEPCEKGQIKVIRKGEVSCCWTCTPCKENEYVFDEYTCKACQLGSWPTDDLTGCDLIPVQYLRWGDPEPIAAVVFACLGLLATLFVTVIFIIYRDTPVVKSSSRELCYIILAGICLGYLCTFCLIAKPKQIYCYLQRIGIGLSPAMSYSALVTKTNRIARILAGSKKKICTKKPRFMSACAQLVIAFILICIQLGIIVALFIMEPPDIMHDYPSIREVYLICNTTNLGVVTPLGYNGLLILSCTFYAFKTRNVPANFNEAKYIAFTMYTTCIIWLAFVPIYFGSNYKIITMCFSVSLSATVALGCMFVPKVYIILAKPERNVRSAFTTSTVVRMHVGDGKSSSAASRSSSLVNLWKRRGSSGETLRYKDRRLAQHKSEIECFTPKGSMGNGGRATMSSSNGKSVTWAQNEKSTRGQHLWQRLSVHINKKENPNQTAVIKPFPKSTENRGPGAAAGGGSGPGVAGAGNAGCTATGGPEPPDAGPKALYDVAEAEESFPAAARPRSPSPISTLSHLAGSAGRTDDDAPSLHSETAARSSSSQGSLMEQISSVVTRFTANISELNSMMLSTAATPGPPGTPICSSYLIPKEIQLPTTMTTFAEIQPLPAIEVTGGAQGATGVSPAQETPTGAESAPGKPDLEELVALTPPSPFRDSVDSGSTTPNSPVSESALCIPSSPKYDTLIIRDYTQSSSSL
Protocol: For subsequent seeding, the FCS supplementation was reduced to 10%. After 12 days, cells were subplated by trypsinisation onto poly-D-lysine precoated 384-well plates at a density of 20.000 cells per well in culture buffer supplemented with […] βFGF (basic fibroblast growth factor) (Invitrogen, Basel, Switzerland) and 10 ng/ml EGF (epidermal growth factor) (Invitrogen, Basel, Switzerland).
After 60 min of loading with 4 uM Fluo-4 (TefLabs, Austin, Tex.), the cells were washed three times with 50 μl of PBS Buffer and resuspended in 45 μl of Assay Buffer. The plates were then transferred to a Fluorometric Imaging Plate Reader (FLIPR, Molecular Devices, Sunnyvale, Calif.) for the assessment of intracellular calcium flux. […] The final DMSO concentration in the assay was 0.3%. In each experiment, fluorescence was then monitored as a function of time for 3 minutes and the data analyzed using Microsoft Excel and GraphPad Prism. Each data point was also measured two times.
The concentration-response curves of representative compounds of the present invention in the presence of EC20 of glutamate were generated using the Prism GraphPad program (Graph Pad Software Inc, San Diego, USA).

mGluR5 (Homo sapiens, UniProt P41594), sequence (P41594 21-1212): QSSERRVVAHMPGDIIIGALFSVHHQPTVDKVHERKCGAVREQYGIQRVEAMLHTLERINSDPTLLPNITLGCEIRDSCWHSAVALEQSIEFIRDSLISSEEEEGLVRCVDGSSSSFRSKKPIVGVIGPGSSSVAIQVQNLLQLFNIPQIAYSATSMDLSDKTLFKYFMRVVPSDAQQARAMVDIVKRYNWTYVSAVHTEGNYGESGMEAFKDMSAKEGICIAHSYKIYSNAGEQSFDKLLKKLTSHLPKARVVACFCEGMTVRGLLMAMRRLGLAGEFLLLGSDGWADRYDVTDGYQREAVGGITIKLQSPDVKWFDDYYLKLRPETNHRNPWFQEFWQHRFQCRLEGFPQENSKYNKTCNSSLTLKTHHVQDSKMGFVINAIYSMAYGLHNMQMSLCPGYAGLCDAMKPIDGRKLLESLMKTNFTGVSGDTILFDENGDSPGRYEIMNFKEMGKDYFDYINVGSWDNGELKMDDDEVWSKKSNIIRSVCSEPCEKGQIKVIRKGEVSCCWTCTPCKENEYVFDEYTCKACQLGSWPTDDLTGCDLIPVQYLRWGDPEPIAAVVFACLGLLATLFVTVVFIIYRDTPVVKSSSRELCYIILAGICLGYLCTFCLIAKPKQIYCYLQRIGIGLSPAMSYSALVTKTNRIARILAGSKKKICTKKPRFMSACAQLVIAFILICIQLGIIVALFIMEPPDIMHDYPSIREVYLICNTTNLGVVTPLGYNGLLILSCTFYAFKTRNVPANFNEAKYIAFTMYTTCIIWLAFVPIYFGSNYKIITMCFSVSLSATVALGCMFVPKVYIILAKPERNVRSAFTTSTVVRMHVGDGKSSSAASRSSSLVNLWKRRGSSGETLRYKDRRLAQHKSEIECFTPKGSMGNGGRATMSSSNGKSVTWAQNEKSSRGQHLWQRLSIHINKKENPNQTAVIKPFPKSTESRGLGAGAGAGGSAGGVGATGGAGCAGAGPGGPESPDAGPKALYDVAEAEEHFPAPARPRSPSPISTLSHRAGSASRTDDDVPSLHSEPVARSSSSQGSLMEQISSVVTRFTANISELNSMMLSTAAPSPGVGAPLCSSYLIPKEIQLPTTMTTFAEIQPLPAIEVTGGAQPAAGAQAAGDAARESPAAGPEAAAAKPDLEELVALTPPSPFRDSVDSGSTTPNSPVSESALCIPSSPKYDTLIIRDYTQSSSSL
orthosteric glutamate site of mGluR5, sequence (P41594 21-1212): as above

| increase of 1 μM glutamate-induced Ca2+ mobilization (mGluR5 [3]) | Structure (SMILES) | in vitro potency as mGluR5 positive allosteric modulator (mGluR5 [1]) | inhibition of the binding of [3H]-quisqualate to the orthosteric glutamate site [2] | agonistic activity in the absence of glutamate (mGluR5 [3]) |
| --- | --- | --- | --- | --- |
| – | Fc1cccc(C=NN=Cc2cccc(F)c2)c1 [DFB, 3,3′-Difluorobenzaldazine] | low in vitro potency | not able to inhibit | – |
| increase | O=C(c1ccc(F)cc1)N1CCC[C@H](c2nc(-c3ccccn3)no2)C1 [Example 56, (4-Fluoro-phenyl)-[(S)-3-(3-pyridin-2-yl-[1,2,4]oxadiazol-5-yl)-piperidin-1-yl]-methanone] | – | – | no statistically significant agonistic activity |
| increase | O=C(c1ccc(F)cc1)N1CCC[C@H](c2nc(-c3ccccc3F)no2)C1 [Example 55, (4-Fluoro-phenyl)-{(S)-3-[3-(2-fluoro-phenyl)-[1,2,4]oxadiazol-5-yl]-piperidin-1-yl}-methanone] | – | – | no statistically significant agonistic activity |
